28 compounds from patent US6512000B1, “Aminocarbonyl-substituted benzimidazoles having tryptase-inhibitory activity” (Boehringer Ingelheim Pharma KG, priority 1999, dated 2003) can be followed below.

Structures can show the parent of a compound that is named as a salt.

This assay deals with T1, rh beta tryptase (Homo sapiens, UniProt P20231).
T1 construct: purchased Promega
As to the kind of experiment: Tryptase inhibition test (cleavage of N-p-tosyl-Gly-Pro-Lys-para-nitroaniline, p-nitroaniline measured at 405 nm). The class given is biochemical. The note with it: pH 7.4, 37° C.; for IC50: concentration at which 50% of the tryptase enzyme activity is inhibited, substrate 0.6 mM; for % Inhibition (10 μM) / inhibition at 10 µM: inhibition of rh beta tryptase at 10 μM test substance, substrate N-p-tosyl-Gly-Pro-Lys-para-nitroaniline 0.6 mM, 5 minutes. The procedure, abridged: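 Screening at 10 μM gives percent inhibition, with IC50 derived for compounds above 70% inhibition. Enzyme: rh beta tryptase, 0.91 U/ml, pH 7.4 Tris HCl (100 mM), 5 mM Ca, 100 mg/ml heparin. After 5 min compound pre-incubation, 0.6 mM pNA substrate cleaved 5 min at 37 °C, monitored at 405 nm.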

T1 sequence (P20231 31-275): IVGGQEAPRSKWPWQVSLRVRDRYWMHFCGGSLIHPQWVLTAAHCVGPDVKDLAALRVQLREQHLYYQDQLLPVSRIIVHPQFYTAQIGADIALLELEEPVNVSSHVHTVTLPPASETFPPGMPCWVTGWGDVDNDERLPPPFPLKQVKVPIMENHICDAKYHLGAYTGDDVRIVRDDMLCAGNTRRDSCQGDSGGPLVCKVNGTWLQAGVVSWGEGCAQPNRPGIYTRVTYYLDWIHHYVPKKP

As to “2-[2-(4-amidinophenyl)ethyl]-1-cyclopropylmethyl-benzimidazol-5-yl-carboxylic acid-N-(2-aminoethyl)-N-(2-pyridyl)-amide [Example 314]”, the IC50 was found to be 0.771 µM and the “% Inhibition (10 μM)” value came to 61%.
In the case of `CN(C)CCN(C)C(=O)c1ccc2c(c1)nc(CCc1ccc(C(=N)N)cc1)n2C` [Example 3, 2-[2-(4-Amidinophenyl)-ethyl]1l-methyl-benzimidazol-5-yl-carboxylic Acid-N-[2-(N,N-dimethylamino)-ethyl]-N-methyl-amide-dihydrochlonide], half-maximal inhibition (IC50) was put at 0.66 µM. This counts as sub-micromolar.
For `N=C(N)c1ccc(CCc2nc3cc(C(=O)N(CCCc4ccccc4)Cc4ccc(CN)cc4)ccc3n2CC2CCCO2)cc1` (stereo not shown) [Example 178, 2-[2-(4-amidinophenyl)ethyl]-1-(tetrahydrofuran-2-yl-methyl)-benzimidazol-5-yl-carboxylic acid-N-[4-(amino-methyl)-benzyl]-N-(3-phenylpropyl)-amide], the inhibition at 10 µM stood at 51%.
Compound `CN(Cc1ccc(N(C)C)cc1)C(=O)c1ccc2c(c1)nc(CCc1ccc(C(=N)N)cc1)n2C` [Example 6, 2-[2-(4-Amidinophenyl)-ethyl]-1-methyl-benzimidazol-5-yl-carboxylic Acid-N-(4-dimethylaminobenzyl)-N-methyl-amide-hydrochloride] gave an IC50 of 0.571 µM.
The same measure, in the same setting: to `Cn1c(CCc2ccc(C(=N)N)cc2)nc2cc(C(=O)N(CCC(=N)N)c3cccc(Oc4ccccc4)c3)ccc21` [Example 23, 2-[2-(4-Amidinophenyl)-ethyl]-1-methyl-benzimidazol-5-yl-carboxylic Acid-N-(2-amidinoethyl)-N-(3-phenoxy-phenyl)-amide-dihydrochloride] belongs 0.049 µM.
Take `N=C(N)c1ccc(CCc2nc3cc(C(=O)N(CCN)CC4CCCCC4)ccc3n2CC2CC2)cc1` [Example 346, 2-[2-(4-amidinophenyl)ethyl]-1-cyclopropylmethyl-benzimidazol-5-yl-carboxylic acid-N-(2-aminoethyl)-N-cyclohexylmethyl-amide]: 10 µM produced 51% inhibition.
In turn, `CCOCCCn1c(CCc2ccc(C(=N)N)cc2)nc2cc(C(=O)N(Cc3ccc(CN)cc3)CC3CCCCC3)ccc21` [Example 150, 2-[2-(4-amidinophenyl)ethyl]-1-(3-ethoxypropyl)-benzimidazol-5-yl-carboxylic acid-N-[4-(amino-methyl)-benzyl]-N-cyclohexylmethyl-amide] had an IC50 of 0.292 µM and an inhibition at 10 µM of 60%.
For `N=C(N)c1ccc(CCc2nc3cc(C(=O)N(CCCc4ccccc4)Cc4ccc(CN)cc4)ccc3n2CC2CC2)cc1` [Example 170, 2-[2-(4-amidinophenyl)ethyl]-1-cyclopropylmethyl-benzimidazol-5-yl-carboxylic acid-N-[4-(amino-methyl)-benzyl]-N-(3-phenylpropyl)-amide], the inhibition at 10 µM came out at 57%.
Still for that read-out and setting: the same measure for `COC(=O)c1ccc(CN(Cc2ccc(CN)cc2)C(=O)c2ccc3c(c2)nc(CCc2ccc(C(=N)N)cc2)n3CCCNC(=O)Cc2ccccc2)cc1` [Example 440, 2-[2-(4-amidinophenyl)ethyl]-1-[3-(benzylcarbonylamino)-propyl]-benzimidazol-5-yl-carboxylic acid-N-[4-(amino-methyl)-benzyl]-N-[4-(methoxycarbonyl)-benzyl]-amide]: 64%.
Turning to “2-[2-(4-amidinophenyl)ethyl]-1-[3-(benzylcarbonylamino)-propyl]-benzimidazol-5-yl-carboxylic acid-N-[4-(amino-methyl)-benzyl]-N-(2-pyridyl)-amide [Example 120]”, the “% Inhibition (10 μM)” value came to 74%.
`Cc1ccccc1N1CCN(CCCn2c(CCc3ccc(C(=N)N)cc3)nc3cc(C(=O)N(CCN)Cc4cccc(C(F)(F)F)c4)ccc32)CC1` [Example 400, 2-[2-(4-amidinophenyl)ethyl]-1-{3-[4-(2-methylphenyl)-piperazin-1-yl]-propyl}-benzimidazol-5-yl-carboxylic acid-N-(2-aminoethyl)-N-(3-trifluoromethylbenzyl)-amide] showed an inhibition at 10 µM of 52%.
The same measure, in the same setting: to `COc1cccc(CN(Cc2ccc(CN)cc2)C(=O)c2ccc3c(c2)nc(CCc2ccc(C(=N)N)cc2)n3CC2CCCO2)c1` (stereo not shown) [Example 82, 2-[2-(4-amidinophenyl)ethyl]-1-(tetrahydrofuran-2-yl-methyl)-benzimidazol-5-yl-carboxylic acid-N-[4-(amino-methyl)-benzyl]-N-(3-methoxybenzyl)-amide] belongs 61%; to `N=C(N)c1ccc(CCc2nc3cc(C(=O)N(CCN)CC4CCCCC4)ccc3n2Cc2cccs2)cc1` [Example 355, 2-[2-(4-amidinophenyl)ethyl]-1-(2-thiophenyl-methyl)-benzimidazol-5-yl-carboxylic acid-N-(2-aminoethyl)-N-cyclohexylmethyl-amide], 51%.
With `Cc1ccccc1N1CCN(C(=O)c2ccc3c(c2)nc(CCc2ccc(C(=N)N)cc2)n3C)CC1` [Example 51, 2-[2-(4-Amidinophenyl)-ethyl]-1-methyl-benzimidazol-5-yl-carboxylic Acid-[N′-(2-methylphenyl)-piperazide]], the IC50 came out at 0.231 µM.
In turn, `CCCCN(CCCC)CCCn1c(CCc2ccc(C(=N)N)cc2)nc2cc(C(=O)N(CCCc3ccccc3)Cc3ccc(CN)cc3)ccc21` [Example 167, 2-[2-(4-amidinophenyl)ethyl]-1-(3-di-n-butylaminopropyl) benzimidazol-5-yl-carboxylic acid-N-[4-(amino-methyl)-benzyl]-N-(3-phenylpropyl)-amide] had an inhibition at 10 µM of 52%.
Still for that read-out and setting: the same measure for `CCCCN(Cc1ccc(CN)cc1)C(=O)c1ccc2c(c1)nc(CCc1ccc(C(=N)N)cc1)n2Cc1ccc2c(c1)OCO2` [Example 100, 2-[2-(4-amidinophenyl)ethyl]-1-(1,3-benzodioxol-5-yl-methyl)-benzimidazol-5-yl-carboxylic acid-N-[4-(amino-methyl)-benzyl]-N-n-butyl-amide]: 67%.
For the compound `CCOCCCn1c(CCc2ccc(C(=N)N)cc2)nc2cc(C(=O)N(Cc3ccc(CN)cc3)Cc3cccc(OC)c3)ccc21` [Example 70, 2-[2-(4-amidinophenyl)ethyl]-1-(3-ethoxy-propyl)-benzimidazol-5-yl-carboxylic acid-N-[4-(amino-methyl)-benzyl]-N-(3-methoxybenzyl)-amide], the IC50 was found to be 0.422 µM and the inhibition at 10 µM came out at 63%.
`CCOCCCn1c(CCc2ccc(C(=N)N)cc2)nc2cc(C(=O)N(CCN)Cc3cccc(OC)c3)ccc21` [Example 262, 2-[2-(4-amidinophenyl)ethyl]-1-(3-ethoxypropyl)-benzimidazol-5-yl-carboxylic acid-N-(2-aminoethyl)-N-(3-methoxybenzyl)-amide]: the 50% inhibitory concentration (IC50) amounted to 0.284 µM and 10 µM produced 58% inhibition.
Turning to `CCCCN(CCN)C(=O)c1ccc2c(c1)nc(CCc1ccc(C(=N)N)cc1)n2CCCNC(=O)Cc1ccccc1` [Example 280, 2-[2-(4-amidinophenyl)ethyl]-1-[3-(benzylcarbonylamino)-propyl]-benzimidazol-5-yl-carboxylic acid-N-(2-aminoethyl)-N-n-butyl-amide], the inhibition at 10 µM was 59%.
Regarding “2-[2-(4-amidinophenyl)ethyl]-1-(3-ethoxypropyl)-benzimidazol-5-yl-carboxylic acid-N-(2-aminoethyl)-N-(3-pyridyl)-amide [Example 326]”, the IC50 is 0.288 µM and the “% Inhibition (10 μM)” value came out at 51%.
As to `Cn1c(CCc2ccc(C(=N)N)cc2)nc2cc(C(=O)N(CCN(Cc3ccccc3)Cc3ccccc3)c3ccccc3)ccc21` [Example 19], it took 0.032 µM to reach half-maximal inhibition (IC50). In other words, the double-digit nanomolar range.
In the case of “2-[2-(4-amidinophenyl)ethyl]-1-[3-(morpholin-4-yl)-propyl]-benzimidazol-5-yl-carboxylic acid-N-[4-(amino-methyl)-benzyl]-N-(2-fluorobenzyl)-amide [Example 225]”, the “% Inhibition (10 μM)” value stood at 58%.
Regarding `Cc1ccc(Cn2c(CCc3ccc(C(=N)N)cc3)nc3cc(C(=O)N(CCCc4ccccc4)Cc4ccc(CN)cc4)ccc32)cc1` [Example 173, 2-[2-(4-amidinophenyl)ethyl]-1-(4-methylbenzyl)-benzimidazol-5-yl-carboxylic acid-N-[4-(amino-methyl)-benzyl]-N-(3-phenylpropyl)-amide], the inhibition at 10 µM is 51%.
`COc1ccccc1N1CCN(C(=O)c2ccc3c(c2)nc(CCc2ccc(C(=N)N)cc2)n3C)CC1` [Example 53, 2-[2-(4-Amidinophenyl)-ethyl]-1-methyl-benzimidazol-5-yl-carboxylic Acid-[N′-(2-methoxyphenyl)-piperazide]] registered an IC50 of 0.241 µM.
Regarding “2-[2-(4-amidinophenyl)ethyl]-1-cyclopropylmethyl-benzimidazol-5-yl-carboxylic acid-N-[4-(amino-methyl)-benzyl]-N-(3-pyridyl)-amide [Example 138]”, the IC50 is 0.431 µM and the “% Inhibition (10 μM)” value was determined as 72%.
For `N=C(N)c1ccc(CCc2nc3cc(C(=O)N(Cc4ccc(Cl)cc4)Cc4ccc(CN)cc4)ccc3n2CCc2ccccc2)cc1` [Example 187, 2-[2-(4-amidinophenyl)ethyl]-1-(2-phenylethyl)-benzimidazol-5-yl-carboxylic acid-N-[4-(amino-methyl)-benzyl]-N-(4-chlorbenzyl)-amide], the “% Inhibition (10 μM)” value came out at 63%.
In turn, `Cn1c(CCc2ccc(C(=N)N)cc2)nc2cc(C(=O)NCCNc3ccccc3)ccc21` [Example 38, 2-[2-(4-Amidinophenyl)-ethyl]-1-methyl-benzimidazol-5-yl-carboxylic Acid-N-(2-phenylamino-ethyl)-amide-dihydrochloride] showed a half-inhibitory concentration (IC50) of 0.113 µM.
On the same count and under the same terms, to `CN(C(=O)c1ccc2c(c1)nc(CCc1ccc(C(=N)N)cc1)n2C)c1cccnc1` [Example 18, 2-[2-(4-Amidinophenyl)-ethyl]-1-methyl-benzimidazol-5-yl-carboxylic Acid-N-methyl-N-(3-pyridyl)-amide-hydrochloride] belongs 0.312 µM.

Usually IC50 stands for the point on the concentration scale where inhibition reaches its midpoint. Read a low IC50 as higher potency. A word on the inhibition: it is the percentage by which the read-out fell short of the control. Read a low inhibition as a response near the control.
